Test results taken from patent publication US6649658B1, “(−)-Verbenone derivatives” (Euphar Group SRL, priority 1999, dated 2003).

Key:
[1] = Stability on storage or handling; assay type: physicochemical; settings: in words
[2] = system: Carrageenin-induced Oedema; test: Carrageenin-induced oedema in the rat per os; assay type: in vivo; settings: 200 mg/kg, maximum effect 120 minutes after administration
Source text: (§1) The anti-inflammatory activity of 3-amino-(−)-verbenone-5-sulphosalicylate was compared with that of (−)-verbenone in accordance with methods described in the literature (C. A. WINTER et al. Carrageenin induced edema in hind paw of the rat as an assay for antinflammatory drugs. Proc. Soc. Exp. Biol. Med. 111, 544, 1962. CURVOISIER et al. Action of chlorpromazine on the edema produced by dextran in rats. Arch. Inter. Pharmacodynamie, 102, 33-54, 1955. B. B. NEWBOULD) Chemotherapy of arthritis induced in rats by microbacterial adjuvant. Brit. J. Pharmacol. 21, 127-135, 1963. J. V. HURLEY et al. Reagin-Like antibodies in animals immune to helminth parasites. Nature (Lond.) 204, 91, 1964. ROTHKOPF et al. Arzneimittel Forschung 26, 225-235, 1976. C. A. WINTER et al. Antitussive compounds: testing methods and results. J. Pharmacol. Exp. Ther. 112, 99, 1954. G. OSTERLOH Arzneimittel Forschung, 16, 901, 1966); the results are given hereinafter in schematic form.
1. Carrageenin-induced Oedema in the Rat per OS
(§2) Parameter: percentage volumetric inhibition; maximum effect 120 minutes after administration: […]

[3] = system: Turpentine-induced Pleurisy; test: Turpentine-induced pleurisy in the rat by the intraperitoneal route; assay type: in vivo; settings: 60 mg/kg
Source text: as §1
4. Turpentine-induced Pleurisy in the Rat by the Intraperitoneal Route
Parameter: percentage inhibition of the volume of exudate and of leukocyte migration: […]

[4] = system: Adverse Gastric Activity; test: Adverse gastric activity in the rat per os (Osterloh); assay type: in vivo; settings: for evaluation of adverse gastric action according to Osterloh: rat, per os, 360 mg/kg, residual adverse gastric action after treatment
Source text: as §1
8. Adverse Gastric Activity in the Rat per OS
Parameter: evaluation of adverse gastric action according to Osterloh
(§3) N. B. It should be emphasised in this connection that the results of Examples 1-6 have been given as a percentage of volumetric inhibition; Examples 7 and 8, however, indicate inflammation and adverse gastric action of a residual nature after treatment.

[5] = system: Carrageenin-induced Pleurisy; test: Carrageenin-induced pleurisy in the rat per os; assay type: in vivo; settings: 180 mg/kg
Source text: as §1
5. Carrageenin-induced Pleurisy in the Rat per OS
(§4) Parameter: percentage inhibition of the volume of exudate: […]

[6] = system: Adjuvant Arthritis; test: Adjuvant arthritis in the rat by the intraperitoneal route; assay type: in vivo; settings: 60 mg/kg, day 28
Source text: as §1
3 Adjuvant Arthritis in the Rat by the Intraperitoneal Route
Parameter: percentage inhibition of the volumetric increase of the lower limbs; day “28”: […]

[7] = system: Carrageenin-induced Oedema; test: Carrageenin-induced oedema in the rat by the intraperitoneal route; assay type: in vivo; settings: 120 mg/kg, maximum effect 120 minutes after administration
Source text: as §1
2. Carrageenin-induced Oedema in the Rat by the Intraperitoneal Route
as §2

[8] = system: Carrageenin-induced Pleurisy; test: Carrageenin-induced pleurisy in the rat by the intraperitoneal route; assay type: in vivo; settings: 25 mg/kg
Source text: as §1
6. Carrageenin-induced Pleurisy in the Rat by the Intraperitoneal Route
as §4

[9] = system: Acrolein-induced Aerosol (inflammation of the airways); test: Acrolein-induced aerosol in the guinea pig by the intraperitoneal route; assay type: in vivo; settings: 30 mg/kg, residual inflammation after treatment (lower is better)
Source text: as §1
7. Acrolein-induced Aerosol in the Guinea Pig by the Intraperitoneal Route
Parameter: inflammation of the upper, middle, lower airways: scores (double blind):
as §3

[10] = Water solubility; assay type: physicochemical; settings: in words

| stability [1] | solubility in water [10] | Molecule | percentage volumetric inhibition [2] [%] | percentage inhibition of the volume of exudate and of leukocyte migration [3] [%] | evaluation of adverse gastric action according to Osterloh [4] | adverse gastric activity compared with (−)-verbenone ([4]; test 8, in words) | percentage inhibition of the volume of exudate [5] [%] | percentage inhibition of the volumetric increase of the lower limbs [6] [%] | percentage volumetric inhibition [7] [%] | percentage inhibition of the volume of exudate [8] [%] | inflammation of the upper, middle, lower airways: scores (double blind) [9] |
| --- | --- | --- | --- | --- | --- | --- | --- | --- | --- | --- | --- |
| sensitive to oxygen, moisture and light |  | C=C1C=C(N2CCCC2)[C@H]2C[C@H]1C2(C)C [Compound 9c, (1S,5S)-6,6-Dimethyl-4-methylene-2-pyrrolidinobicyclo[3.1.1]hept-2-ene] |  |  |  |  |  |  |  |  |  |
|  |  | 3-Aminoverbenone-5-sulphosalicylate [3-amino-(−)-verbenone-5-sulphosalicylate] | 78 | 68 | 0.85 | substantially lower adverse gastric activity | 72 | 64 | 67 | 64 | 18 |
| instability over time | water-insolubility | CC1=CC(=O)[C@H]2C[C@@H]1C2(C)C [(−)-verbenone, (1S,5S)-4,6,6-Trimethylbicyclo[3.1.1]hept-3-en-2-one] | 63 | 49 | 2 |  | 46 | 39 | 48 | 48 | 24 |
